Test results: PubChem BioAssay AID256 (DTP/NCI, 2004)
“And” between values parts separate entries of the source, which are not always exact repeats. Equal entries are not always repeated. Inconclusive results and toxic doses are left out. How the source made its calls: active means survival T/C of 150% or more; inactive means T/C below 125% in these data.

System: CD2F1 mice, L1210 leukemia ip, survival T/C
Assay: NCI In Vivo Anticancer Drug Screen. Data for tumor model L1210 Leukemia (intraperitoneal) in CD2F1 (CDF1) mice
Conditions: higher = longer survival
Method in brief: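 In this screen, transplantable tumors were grown in mice given either the compound or its vehicle. Results were expressed as the treated measurement relative to the control measurement.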

[1] = endpoint: mean survival time, dose: 100.0 mg/kg/injection, schedule: Q04DX003 (ip), vehicle: saline
[2] = endpoint: mean survival time, dose: 200.0 mg/kg/injection, schedule: Q04DX003 (ip), vehicle: saline
[3] = endpoint: mean survival time, dose: 100.0 mg/kg/injection, schedule: Q04DX003 (ip), vehicle: saline with Tween-80
[4] = endpoint: mean survival time, dose: 200.0 mg/kg/injection, schedule: Q04DX003 (ip), vehicle: saline with Tween-80
[5] = endpoint: mean survival time, dose: 400.0 mg/kg/injection, schedule: Q04DX003 (ip), vehicle: saline with Tween-80
[6] = endpoint: mean survival time, dose: 100.0 mg/kg/injection, schedule: Q01DX009 (ip), vehicle: saline with Tween-80
[7] = endpoint: mean survival time, dose: 200.0 mg/kg/injection, schedule: Q01DX009 (ip), vehicle: saline with Tween-80
[8] = endpoint: mean survival time, dose: 400.0 mg/kg/injection, schedule: Q01DX009 (ip), vehicle: saline with Tween-80
[9] = endpoint: mean survival time, dose: 50.0 mg/kg/injection, schedule: Q04DX002 (ip), vehicle: saline with Tween-80
[10] = endpoint: mean survival time, dose: 100.0 mg/kg/injection, schedule: Q04DX002 (ip), vehicle: saline with Tween-80
[11] = endpoint: mean survival time, dose: 200.0 mg/kg/injection, schedule: Q04DX002 (ip), vehicle: saline with Tween-80
[12] = endpoint: mean survival time, dose: 0.06 mg/kg/injection, schedule: Q01DX009 (ip), vehicle: saline

Measured: T/C

O=C(OC1C2C=COC(OC3OC(CO)C(O)C(O)C3O)C2C2(CO)OC12)c1ccc(O)cc1 (stereo unspecified)
inactive: endpoint: mean survival time, dose: 25.0 mg/kg/injection, schedule: Q01DX001 (ip), vehicle: carboxymethylcellulose (CMC) 101 % of control | endpoint: mean survival time, dose: 50.0 mg/kg/injection, schedule: Q01DX001 (ip), vehicle: carboxymethylcellulose (CMC) 98 % of control | endpoint: mean survival time, dose: 100.0 mg/kg/injection, schedule: Q01DX001 (ip), vehicle: carboxymethylcellulose (CMC) 89 % of control

CCC(C)(O)C(C)N(C)C1CCCCC1 (stereo unspecified)
inactive: [1] 97 % of control and 100 % of control | [2] 100 % of control and 97 % of control

CC(=O)CC(=O)c1ccccc1.CC(=O)CC(=O)c1ccccc1.[Cl][Sn][Cl]
inactive: endpoint: mean survival time, dose: 100.0 mg/kg/injection, schedule: Q01DX001 (ip), vehicle: saline with Tween-80 92 % of control | endpoint: mean survival time, dose: 200.0 mg/kg/injection, schedule: Q01DX001 (ip), vehicle: saline with Tween-80 100 % of control | endpoint: mean survival time, dose: 400.0 mg/kg/injection, schedule: Q01DX001 (ip), vehicle: saline with Tween-80 107 % of control

O=C(CCl)Nc1cc(C(F)(F)F)ccc1Cl
inactive: endpoint: mean survival time, dose: 6.25 mg/kg/injection, schedule: Q01DX009 (ip), vehicle: saline with Tween-80 101 % of control | endpoint: mean survival time, dose: 12.5 mg/kg/injection, schedule: Q01DX009 (ip), vehicle: saline with Tween-80 101 % of control | endpoint: mean survival time, dose: 25.0 mg/kg/injection, schedule: Q01DX009 (ip), vehicle: saline with Tween-80 104 % of control | [3] 104 % of control | [4] 97 % of control | [5] 97 % of control

Cc1cc(=S)n(C)c2ccccc12
inactive: [6] 94 % of control | [3] 93 % of control | [7] 93 % of control | [4] 96 % of control | [8] 98 % of control | [5] 88 % of control

N#C/C(=C(\N)c1ccccc1)c1ccccc1
inactive: endpoint: mean survival time, dose: 100.0 mg/kg/injection, schedule: Q01DX001 (ip), vehicle: Klucel (hydroxypropylcellulose) (HPC) 93 % of control | endpoint: mean survival time, dose: 400.0 mg/kg/injection, schedule: Q01DX001 (ip), vehicle: Klucel (hydroxypropylcellulose) (HPC) 112 % of control

CC(=O)C(C(=N)C#N)C(C)=O
inactive: [9] 101 % of control | [10] 89 % of control | [11] 89 % of control

O=C(O)CCC(=O)CCC(=O)c1ccccc1
inactive: endpoint: mean survival time, dose: 50.0 mg/kg/injection, schedule: Q01DX009 (ip), vehicle: saline with Tween-80 96 % of control | [6] 98 % of control | [3] 91 % of control | [7] 98 % of control

COc1cc2cc[n+](C)cc2cc1OC
inactive: endpoint: mean survival time, dose: 25.0 mg/kg/injection, schedule: Q01DX009 (ip), vehicle: water 98 % of control | endpoint: mean survival time, dose: 50.0 mg/kg/injection, schedule: Q01DX009 (ip), vehicle: water 103 % of control | endpoint: mean survival time, dose: 100.0 mg/kg/injection, schedule: Q01DX009 (ip), vehicle: water 101 % of control

CC1NC=NC1C(c1ccccc1)c1ccccc1 (stereo unspecified)
inactive: endpoint: mean survival time, dose: 25.0 mg/kg/injection, schedule: Q04DX003 (ip), vehicle: saline with Tween-80 102 % of control | endpoint: mean survival time, dose: 50.0 mg/kg/injection, schedule: Q04DX003 (ip), vehicle: saline with Tween-80 109 % of control | [3] 101 % of control

C=C(C)C1C2CC3(C)C4(CO4)C4OC4C3(O)C1C(=O)O2 (stereo unspecified)
inactive: endpoint: median survival time, dose: 0.25 mg/kg/injection, schedule: Q01DX009 (ip), vehicle: Klucel (hydroxypropylcellulose) (HPC) 100 % of control | endpoint: median survival time, dose: 0.5 mg/kg/injection, schedule: Q01DX009 (ip), vehicle: Klucel (hydroxypropylcellulose) (HPC) 98 % of control | endpoint: median survival time, dose: 1.0 mg/kg/injection, schedule: Q01DX009 (ip), vehicle: Klucel (hydroxypropylcellulose) (HPC) 103 % of control | endpoint: median survival time, dose: 2.0 mg/kg/injection, schedule: Q01DX009 (ip), vehicle: Klucel (hydroxypropylcellulose) (HPC) 97 % of control

Brc1ccc2sc3ccccc3c2c1
inactive: [10] 102 % of control | [11] 89 % of control | endpoint: mean survival time, dose: 400.0 mg/kg/injection, schedule: Q04DX002 (ip), vehicle: saline with Tween-80 91 % of control

O=c1ccn(Cc2cccc([N+](=O)[O-])c2)c(=O)[nH]1
inactive: [6] 106 % of control | [7] 104 % of control | [8] 102 % of control

N/C(=N\c1nc(N)cc(=O)[nH]1)Nc1ccc(S(N)(=O)=O)cc1
inactive: endpoint: mean survival time, dose: 100.0 mg/kg/injection, schedule: Q01DX009 (ip), vehicle: saline 96 % of control | endpoint: mean survival time, dose: 200.0 mg/kg/injection, schedule: Q01DX009 (ip), vehicle: saline 95 % of control | endpoint: mean survival time, dose: 400.0 mg/kg/injection, schedule: Q01DX009 (ip), vehicle: saline 95 % of control

NNC(=O)CCC(=O)NN
inactive: endpoint: mean survival time, dose: 6.25 mg/kg/injection, schedule: Q01DX009 (ip), vehicle: saline 111 % of control | endpoint: mean survival time, dose: 12.5 mg/kg/injection, schedule: Q01DX009 (ip), vehicle: saline 103 % of control | endpoint: mean survival time, dose: 25.0 mg/kg/injection, schedule: Q01DX009 (ip), vehicle: saline 97 % of control | [1] 98 % of control | [2] 113 % of control | endpoint: mean survival time, dose: 400.0 mg/kg/injection, schedule: Q04DX003 (ip), vehicle: saline 101 % of control

Nc1nc(N)c(-c2ccc(Cl)cc2)c(CNc2cccc([N+](=O)[O-])c2)n1
inactive: endpoint: mean survival time, dose: 100.0 mg/kg/injection, schedule: Q01DX001 (ip), vehicle: other 95 % of control | endpoint: mean survival time, dose: 200.0 mg/kg/injection, schedule: Q01DX001 (ip), vehicle: other 94 % of control | endpoint: mean survival time, dose: 400.0 mg/kg/injection, schedule: Q01DX001 (ip), vehicle: other 90 % of control

CC(C)/C(=N\[N+](C)(C)C)c1ccccc1
inactive: endpoint: mean survival time, dose: 18.8 mg/kg/injection, schedule: Q01DX009 (ip), vehicle: saline 97 % of control | endpoint: mean survival time, dose: 37.5 mg/kg/injection, schedule: Q01DX009 (ip), vehicle: saline 96 % of control | endpoint: mean survival time, dose: 75.0 mg/kg/injection, schedule: Q01DX009 (ip), vehicle: saline 91 % of control

Cc1cc(OC(=O)N2CCCCC2)c(C(C)C)cc1[N+](C)(C)C
inactive: [12] 95 % of control | endpoint: mean survival time, dose: 0.07 mg/kg/injection, schedule: Q04DX003 (ip), vehicle: saline sonified 97 % of control | endpoint: mean survival time, dose: 0.13 mg/kg/injection, schedule: Q04DX003 (ip), vehicle: saline sonified 106 % of control | endpoint: mean survival time, dose: 0.25 mg/kg/injection, schedule: Q04DX003 (ip), vehicle: saline sonified 100 % of control

Nc1ncnc(N2C(=S)OC3C(O)C(CO)OC32)c1N (stereo unspecified)
inactive: endpoint: mean survival time, dose: 12.5 mg/kg/injection, schedule: Q01DX005 (ip), vehicle: water 92 % of control | endpoint: mean survival time, dose: 25.0 mg/kg/injection, schedule: Q01DX005 (ip), vehicle: water 88 % of control | endpoint: mean survival time, dose: 50.0 mg/kg/injection, schedule: Q01DX005 (ip), vehicle: water 95 % of control | endpoint: mean survival time, dose: 100.0 mg/kg/injection, schedule: Q01DX005 (ip), vehicle: water 95 % of control | endpoint: mean survival time, dose: 200.0 mg/kg/injection, schedule: Q01DX005 (ip), vehicle: water 90 % of control

COc1c(NC(=O)Nc2ccccc2Cl)cccc1[N+](=O)[O-]
inactive: endpoint: mean survival time, dose: 25.0 mg/kg/injection, schedule: Q04DX002 (ip), vehicle: saline with Tween-80 87 % of control | [9] 90 % of control | [10] 90 % of control

C/C=C1\C[C@@H]2C(OC)Nc3cc(O)c(OC)cc3C(=O)N2C1 (stereo partly specified)
inactive: endpoint: mean survival time, dose: 0.03 mg/kg/injection, schedule: Q01DX009 (ip), vehicle: saline 103 % of control | endpoint: mean survival time, dose: 0.03 mg/kg/injection, schedule: Q01DX009 (ip), vehicle: suspension in saline 102 % of control | [12] 104 % of control | endpoint: mean survival time, dose: 0.06 mg/kg/injection, schedule: Q01DX009 (ip), vehicle: suspension in saline 101 % of control | endpoint: mean survival time, dose: 0.12 mg/kg/injection, schedule: Q01DX009 (ip), vehicle: saline 109 % of control | endpoint: mean survival time, dose: 0.12 mg/kg/injection, schedule: Q01DX009 (ip), vehicle: suspension in saline 108 % of control | endpoint: mean survival time, dose: 0.25 mg/kg/injection, schedule: Q01DX009 (ip), vehicle: saline 106 % of control | endpoint: mean survival time, dose: 0.25 mg/kg/injection, schedule: Q01DX009 (ip), vehicle: suspension in saline 120 % of control | endpoint: mean survival time, dose: 0.5 mg/kg/injection, schedule: Q01DX009 (ip), vehicle: saline 118 % of control | endpoint: mean survival time, dose: 0.5 mg/kg/injection, schedule: Q01DX009 (ip), vehicle: suspension in saline 123 % of control | endpoint: mean survival time, dose: 0.75 mg/kg/injection, schedule: Q04DX002 (ip), vehicle: saline 106 % of control | endpoint: mean survival time, dose: 1.0 mg/kg/injection, schedule: Q01DX009 (ip), vehicle: saline 110 % of control | endpoint: mean survival time, dose: 1.0 mg/kg/injection, schedule: Q01DX009 (ip), vehicle: suspension in saline 92 % of control | endpoint: mean survival time, dose: 1.5 mg/kg/injection, schedule: Q04DX002 (ip), vehicle: saline 114 % of control
